Tested on: iCasp9M.IRES.GFPhigh-transduced CTLs
Assay: SCID mouse-human xenograft: elimination of iCasp9M CTLs by CID
Type: in vivo, NOD/SCID mice
Settings: single dose of CID (50 μg AP20187 intraperitoneally), three days after
Protocol: Non-obese diabetic severe combined immunodeficient (NOD/SCID) mice, 6 to 8 weeks of age, were irradiated (250 rad) and injected subcutaneously in the right flank with 10×10^6 to 15×10^6 LCLs resuspended in Matrigel (BD Bioscience). Two weeks later mice bearing tumors that were approximately 0.5 cm in diameter were injected into the tail vein with a 1:1 mixture of nontransduced and iCasp9.I.GFPhigh-transduced EBV CTLs (total 15×10^6). At 4 to 6 hours prior and 3 days after CTL infusion, mice were injected intraperitoneally with recombinant hIL-2 (2000 U; Proleukin; Chiron). […] By FACS analysis, the number of GFP+ cells within the gated CD3^+ population was evaluated. […]
The function of iCasp9M also was evaluated in transduced EBV-CTLs in vivo. […] Three days after CID/carrier administration, tumors were analyzed for human CD3^+/GFP^+ cells. […]
The function of iCasp9M in vivo, was assayed. […] On day 3 after CTL administration, mice received either CID (50 μg AP20187; (black diamonds, n=6) or carrier only (black squares, n=5) and on day 6 the presence of human CD3+/GFP+ T cells in the tumors was analyzed. Human CD3+ T cells isolated from the tumors of a control group of mice that received only nontransduced CTLs (15×10^6 CTLs; n=4) were used as a negative control for the analysis of CD3+/GFP+ T cells within the tumors.

CC[C@H](C(=O)N1CCCC[C@H]1C(=O)O[C@H](CCc1ccc(OC)c(OC)c1)c1cccc(OCC(=O)NCC(CNC(=O)COc2cccc([C@@H](CCc3ccc(OC)c(OC)c3)OC(=O)[C@@H]3CCCCN3C(=O)[C@@H](CC)c3cc(OC)c(OC)c(OC)c3)c2)CN(C)C)c1)c1cc(OC)c(OC)c(OC)c1 [AP20187]
reduction in the number of human CD3+/GFP+ T cells in tumors vs carrier (listed as CID): > 99%
reduction in the number of human CD3+/GFP+ T cells in tumors vs carrier (listed as dimerizer): more than 99%

— patent US20220125837A1, “METHODS FOR CONTROLLED ELIMINATION OF THERAPEUTIC CELLS” (Bellicum Pharmaceuticals, Inc., priority 2014, published 2022)
